Several values for one entry are separate records, joined by “and”; a condition that tells them apart may be missing. Identical values can stand only once.
Key:
monoglyceride lipase [1] = experiment: Substrate specificity of the monoglyceride lipase (enzymatic activity assay, glycerol formed); format: biochemical, Bacillus stearothermophilus H-165; settings: for Glycerol hydrolyzed from substrate in the presence of the monoglyceride lipase: diglyceride or triglyceride used as substrate; for Activity of lipase (%): relative activity of monoglyceride lipase on the substrate, Monolaurin 100.0
Protocol: (8) Substrate specificity: The substrate specificity of the monoglyceride lipase in this invention is investigated under conditions where the below-described assay method of enzymatic activity for the monoglyceride lipase is conducted.
MEASUREMENT METHOD OF ENZYMATIC ACTIVITY OF MONOGLYCERIDE LIPASE
(§1) To 0.4 ml of a solution of the above composition, is added 50 μl of 10 mM monolaurin (0.5 % aqueous solution of "Triton X-100"). The resultant mixture is pre-incubated at 37° C. for 2-3 minutes and 50 μl of an enzyme solution is added to initiate a reaction. Exactly 10 minutes later, 2.5 ml of 5 % SDS (sodium dodecyl sulfate) is added to terminate the reaction. The absorbance is measured at 550 nm. Regarding the enzymatic activity, the activity capable of producing 1 μmole of glycerol per minute is defined at 1 Unit (1 U). The following equation is used for calculation of enzymatic activity (potency): [formula] wherein ΔA 550: Absorbance at the wavelength of 550 nm

monoglyceride lipase [2] = experiment: Effects of surface active agents and metal ions on the monoglyceride lipase; format: biochemical, Bacillus stearothermophilus H-165; settings: for Effect of added reagent on monoglyceride lipase activity: Table 2; for Activity of lipase (%): no reagent 100
Protocol: The mon[…] is not affected by the addition of divalent metal ions such as Ca^++ and Mg^++.
MEASUREMENT METHOD OF ENZYMATIC ACTIVITY OF MON[…]
as §1

pancreatic lipase = molecular target: T1, pancreatic lipase (Sus scrofa, UniProt P00591); experiment: Glycerol liberated from α,β-diglyceride substrates by pancreatic lipase only; format: biochemical; settings: only pancreatic lipase used
T1 sequence (P00591 1-450): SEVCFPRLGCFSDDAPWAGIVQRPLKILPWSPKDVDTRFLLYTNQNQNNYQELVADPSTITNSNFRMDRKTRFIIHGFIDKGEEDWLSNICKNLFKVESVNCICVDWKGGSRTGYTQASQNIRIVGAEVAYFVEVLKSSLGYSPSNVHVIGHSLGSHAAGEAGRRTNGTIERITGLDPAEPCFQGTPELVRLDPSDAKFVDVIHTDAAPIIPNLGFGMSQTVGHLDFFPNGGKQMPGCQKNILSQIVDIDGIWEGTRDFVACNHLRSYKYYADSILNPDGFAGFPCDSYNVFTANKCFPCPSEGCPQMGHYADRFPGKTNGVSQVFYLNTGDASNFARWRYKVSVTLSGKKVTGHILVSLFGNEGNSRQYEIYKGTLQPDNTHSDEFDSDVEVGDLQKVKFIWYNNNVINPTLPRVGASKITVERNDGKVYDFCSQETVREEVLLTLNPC
Text: (§2) (i) Pancreatic lipase and the monoglyceride lipase are applied to the below-described α,β-diglyceride substrates. Their α-positions are hydrolyzed by the pancreatic lipase and then the resulting β-monoglycerides are allowed to react with the monoglyceride lipase, in order to analyze glycerol thus liberated. Glycerol is detected with respect to the substrates, namely,α-oleyl-β-palmitoyldiglyceride, α-palmitoly-β-oleolyldiglyceride and α,β-dilinoleylglyceride. However, glycerol is not detected when only pancreatic lipase is used.

[3] = tested on: Pancreatic lipase and the monoglyceride lipase; experiment: Glycerol liberated from α,β-diglyceride substrates by pancreatic lipase plus monoglyceride lipase; format: biochemical; settings: pancreatic lipase and monoglyceride lipase applied
Text: (2) Substrate specificity of the monoglyceride lipase upon use of α,β-diglyceride as a substrate:
as §2

[4] = reagent concentration 1 mM, 10 min

CCCCC/C=C\C/C=C\CCCCCCCC(=O)OCC(CO)OC(=O)CCCCCCC/C=C\C/C=C\CCCCC (stereo not drawn) [1,2-dilinolein]
Glycerol hydrolyzed from substrate in the presence of the monoglyceride lipase (monoglyceride lipase [1]): no glycerol hydrolyzed is detected
Activity of lipase (%) (monoglyceride lipase [1]): 0%

CCCCC/C=C\C/C=C\CCCCCCCC(=O)OCC(O)COC(=O)CCCCCCC/C=C\C/C=C\CCCCC [1,3-dilinolein]
Glycerol hydrolyzed from substrate in the presence of the monoglyceride lipase (monoglyceride lipase [1]): no glycerol hydrolyzed is detected
Activity of lipase (%) (monoglyceride lipase [1]): 0%

[Ca+2].[Cl-].[Cl-] [CaCl2, calcium chloride]
Effect of added reagent on monoglyceride lipase activity (monoglyceride lipase [2]): not affected
Activity of lipase (%) (monoglyceride lipase [2]; [4]): 100.0%

C[C@H](CCC(=O)O)[C@H]1CC[C@H]2[C@@H]3[C@H](O)C[C@@H]4C[C@H](O)CC[C@]4(C)[C@H]3C[C@H](O)[C@]12C [Cholic acid]
Effect of added reagent on monoglyceride lipase activity (monoglyceride lipase [2]): inhibition of the activity is observed in the high concentration range
Activity of lipase (%) (monoglyceride lipase [2]; [4]): 100.0%
Activity of lipase (%) (monoglyceride lipase [2]; reagent concentration 10 mM): 92.6%

O=C(O)CN(CCN(CC(=O)O)CC(=O)O)CC(=O)O [EDTA]
Activity of lipase (%) (monoglyceride lipase [2]; [4]): 86.0%

[Cl-].[Cl-].[Mg+2] [MgCl2, magnesium chloride]
Effect of added reagent on monoglyceride lipase activity (monoglyceride lipase [2]): not affected
Activity of lipase (%) (monoglyceride lipase [2]; [4]): 100.0%

CC(=O)OCC(O)CO (stereo not drawn) [Monoacetin]
Activity of lipase (%) (monoglyceride lipase [1]): 10.1%

CCCC(=O)OCC(O)CO (stereo not drawn) [Monobutyrin]
Activity of lipase (%) (monoglyceride lipase [1]): 47.1%

CCCCCCCCCC(=O)OCC(O)CO (stereo not drawn) [Monocaprin]
Activity of lipase (%) (monoglyceride lipase [1]): 89.1%

CCCCCCCCCCCC(=O)OCC(O)CO (stereo not drawn) [Monolaurin]
Activity of lipase (%) (monoglyceride lipase [1]): 100.0%

CCCCCCCCCCCCCC(=O)OCC(O)CO (stereo not drawn) [Monomyristin]
Activity of lipase (%) (monoglyceride lipase [1]): 85.7%

CCCCCCCC/C=C\CCCCCCCC(=O)OCC(O)CO (stereo not drawn) [Monoolein]
Activity of lipase (%) (monoglyceride lipase [1]): 56.3% and 75.6%

CCCCCCCCCCCCCCCC(=O)OCC(O)CO (stereo not drawn) [Monopalmitin]
Activity of lipase (%) (monoglyceride lipase [1]): 39.5%

CCCCCCCCCCCCCCCCCC(=O)OCC(O)CO (stereo not drawn) [Monostearin]
Activity of lipase (%) (monoglyceride lipase [1]): 27.6%

CC(=O)OCC(COC(C)=O)OC(C)=O [Triacetin]
Activity of lipase (%) (monoglyceride lipase [1]): 0%

CCCC(=O)OCC(COC(=O)CCC)OC(=O)CCC [Tributyrin]
Activity of lipase (%) (monoglyceride lipase [1]): 0%

CCCCCCCC/C=C\CCCCCCCC(=O)OCC(COC(=O)CCCCCCC/C=C\CCCCCCCC)OC(=O)CCCCCCC/C=C\CCCCCCCC [Triolein]
Glycerol hydrolyzed from substrate in the presence of the monoglyceride lipase (monoglyceride lipase [1]): no glycerol hydrolyzed is detected
Activity of lipase (%) (monoglyceride lipase [1]): 0%

CCCCC/C=C\C/C=C\CCCCCCCC(=O)OCC(CO)OC(=O)CCCCCCC/C=C\C/C=C\CCCCC (stereo not drawn) [α,β-dilinoleylglyceride]
Glycerol liberated (pancreatic lipase): not detected
Glycerol liberated [3]: detected

CCCCCCCC/C=C\CCCCCCCC(=O)OCC(CO)OC(=O)CCCCCCCCCCCCCCC (stereo not drawn) [α-oleyl-β-palmitoyldiglyceride]
Glycerol liberated (pancreatic lipase): not detected
Glycerol liberated [3]: detected

CCCCCCCC/C=C\CCCCCCCC(=O)OC(CO)COC(=O)CCCCCCCCCCCCCCC (stereo not drawn) [α-palmitoly-β-oleolyldiglyceride]
Glycerol liberated (pancreatic lipase): not detected
Glycerol liberated [3]: detected
